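Briefly, cells in 96-well plates were exposed to five compound concentrations for 48 h, and endpoints were estimated by linear interpolation. GI50 = concentration required for 50% inhibition of growth. TGI denotes the concentration required for complete inhibition of growth.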

Among the test systems are SF-295 CNS; SK-MEL-5 melanoma; K-562 leukemia; EKVX NSCLC; RPMI-8226 leukemia; CCRF-CEM leukemia; COLO 205 colon; UACC-257 melanoma; OVCAR-4 ovarian; SNB-19 CNS.
Experiment in all cases: inhibition of tumour cell growth, NCI panel, 48 h

As for `CC1(C)CC(C)(C)c2cc(NC(=S)Nc3ccc([N+](=O)[O-])cc3)ccc2S1`, the GI50 is 10.8 µM in the test on SF-295 CNS; 9.23 µM in the test with SK-MEL-5 melanoma; 10.8 µM in the test on K-562 leukemia; 12.7 µM in the test with EKVX NSCLC; 31 µM with RPMI-8226 leukemia; 12.3 µM in the test on CCRF-CEM leukemia. Also, the GI50 with COLO 205 colon is 13 µM; with UACC-257 melanoma, 13.6 µM; with OVCAR-4 ovarian, 14.8 µM; in the test with SNB-19 CNS, 21 µM. The TGI with SF-295 CNS was 27.2 µM; in the test with SK-MEL-5 melanoma, 19.1 µM; with K-562 leukemia, more than 60 µM; in the test with EKVX NSCLC, 29.7 µM; in the test with RPMI-8226 leukemia, 99.8 µM; in the test with CCRF-CEM leukemia, 41.1 µM. Further, the TGI is 59.4 µM in the test on COLO 205 colon, 50.7 µM in the test on UACC-257 melanoma, 60.4 µM in the test on OVCAR-4 ovarian and more than 76.1 µM in the test with SNB-19 CNS.
Turning to `COc1ccc(-c2ccc(CC(=O)O)cc2)cc1OC`, the TGI in the test with SF-295 CNS, in the test on SK-MEL-5 melanoma, in the test with K-562 leukemia, with EKVX NSCLC, with RPMI-8226 leukemia and with CCRF-CEM leukemia was more than 100 µM throughout. Moreover, the TGI in the test with COLO 205 colon, with UACC-257 melanoma, in the test with OVCAR-4 ovarian and with SNB-19 CNS was more than 100 µM in each case.
For `C[C@@]1(F)[C@H](O)[C@@H](CO)O[C@H]1n1ccc(=O)[nH]c1=O`, the GI50 in the test on SF-295 CNS, in the test on SK-MEL-5 melanoma, in the test with K-562 leukemia, in the test with EKVX NSCLC, with RPMI-8226 leukemia and in the test on CCRF-CEM leukemia was more than 100 µM each time. In addition, the GI50 in the test with COLO 205 colon, in the test on UACC-257 melanoma, in the test with OVCAR-4 ovarian and in the test on SNB-19 CNS was more than 100 µM each time. Moreover, the TGI with SF-295 CNS, with SK-MEL-5 melanoma, in the test with K-562 leukemia, in the test on EKVX NSCLC, with RPMI-8226 leukemia and in the test with CCRF-CEM leukemia was more than 100 µM each time. For the same compound, the TGI in the test on COLO 205 colon, in the test on UACC-257 melanoma, in the test on OVCAR-4 ovarian and in the test with SNB-19 CNS was more than 100 µM each time.
For the compound `CC1CCC2C(C)C(=O)OC2C2(C)C(=O)C=CC12` (stereo not given), the TGI in the test with SF-295 CNS, with SK-MEL-5 melanoma, in the test with K-562 leukemia, in the test with EKVX NSCLC, with RPMI-8226 leukemia and with CCRF-CEM leukemia was more than 10 µM in each case. Further, the TGI with COLO 205 colon, in the test with UACC-257 melanoma, in the test on OVCAR-4 ovarian and in the test on SNB-19 CNS was more than 10 µM each time.
Turning to `COC(=O)C1CC(c2ccc(OC)c(OC)c2)OC1=O` (mixture of isomers), the TGI in the test with SF-295 CNS, with SK-MEL-5 melanoma, with K-562 leukemia, in the test on EKVX NSCLC, with RPMI-8226 leukemia and with CCRF-CEM leukemia was more than 100 µM throughout. The TGI with COLO 205 colon, in the test on UACC-257 melanoma, in the test on OVCAR-4 ovarian and with SNB-19 CNS was more than 100 µM each time.
On to `C1=CC(=P(c2ccccc2)(c2ccccc2)c2ccccc2)C=C1`, for which the TGI in the test on SF-295 CNS came out at 30.8 µM; with SK-MEL-5 melanoma, 30.3 µM; in the test on K-562 leukemia it was 11.3 µM; with EKVX NSCLC, 82.5 µM; in the test with RPMI-8226 leukemia, 11 µM; in the test on CCRF-CEM leukemia it was 13.4 µM. The TGI came out at 14.8 µM with COLO 205 colon, 20.3 µM in the test on UACC-257 melanoma, 31.5 µM with OVCAR-4 ovarian and 31.6 µM in the test with SNB-19 CNS.
With `Cc1nnc2n1N=C(c1ccccc1)C(c1ccccc1)S2` (stereo not given), the TGI in the test on SF-295 CNS was more than 100 µM; with SK-MEL-5 melanoma, more than 100 µM; in the test on K-562 leukemia it was more than 100 µM; in the test with EKVX NSCLC it was more than 100 µM; in the test on RPMI-8226 leukemia it was more than 100 µM; in the test with CCRF-CEM leukemia, 77.1 µM. Further, the TGI in the test on COLO 205 colon was 41.8 µM; with UACC-257 melanoma, more than 100 µM; in the test with OVCAR-4 ovarian, more than 100 µM; with SNB-19 CNS, more than 100 µM.
On to `NCCO/C=C/C(N)C(=O)O` (stereo not given), for which the TGI with SF-295 CNS, in the test with SK-MEL-5 melanoma, in the test with K-562 leukemia, in the test on EKVX NSCLC, in the test with RPMI-8226 leukemia and with CCRF-CEM leukemia was more than 100 µM throughout. Also, the TGI in the test on COLO 205 colon, in the test with UACC-257 melanoma, in the test with OVCAR-4 ovarian and in the test with SNB-19 CNS was more than 100 µM each time.
With `Cn1c(COC(=O)NCCn2ccnc2)nc2c(N3CCOCC3)nc(-c3ccccc3)nc21`, the GI50 with SF-295 CNS is 1.54 µM; in the test with SK-MEL-5 melanoma, 1.46 µM; in the test with K-562 leukemia, 0.347 µM; in the test on EKVX NSCLC, 1.26 µM; in the test on RPMI-8226 leukemia, 0.222 µM; in the test with CCRF-CEM leukemia, 0.254 µM. Moreover, the GI50 with COLO 205 colon was 1.15 µM; with UACC-257 melanoma, 1.28 µM; in the test on OVCAR-4 ovarian, 0.692 µM; with SNB-19 CNS it was 1.38 µM. Further, the TGI with SF-295 CNS was found to be 2.89 µM; in the test with SK-MEL-5 melanoma, 2.81 µM; with K-562 leukemia it was 2 µM; with EKVX NSCLC, 2.65 µM; with RPMI-8226 leukemia, 1.05 µM; in the test with CCRF-CEM leukemia, 1.44 µM. The TGI with COLO 205 colon was found to be 2.97 µM; in the test on UACC-257 melanoma, 2.86 µM; in the test with OVCAR-4 ovarian, 1.97 µM; in the test on SNB-19 CNS, 2.69 µM.
`COc1ccc2[nH]c(C(=O)N3CCN(C(=O)OCc4ccc5c(Cl)cc(Cl)c(O)c5n4)CC3)cc2c1`: the GI50 was 3.91 µM with SF-295 CNS; 1.66 µM in the test on SK-MEL-5 melanoma; 0.543 µM in the test with K-562 leukemia; 1.61 µM in the test on EKVX NSCLC; 0.281 µM in the test with RPMI-8226 leukemia; 0.275 µM with CCRF-CEM leukemia. Further, the GI50 with COLO 205 colon is 0.85 µM; with UACC-257 melanoma it was 1.41 µM; with OVCAR-4 ovarian, 1.53 µM; with SNB-19 CNS it was 1.54 µM. Besides, the TGI was found to be 13.8 µM in the test with SF-295 CNS; 3.03 µM in the test with SK-MEL-5 melanoma; 4.41 µM with K-562 leukemia; 2.97 µM with EKVX NSCLC; 0.962 µM in the test on RPMI-8226 leukemia; 1.67 µM in the test with CCRF-CEM leukemia. Besides, the TGI with COLO 205 colon came out at 2.48 µM; with UACC-257 melanoma, 2.8 µM; with OVCAR-4 ovarian, 3.07 µM; with SNB-19 CNS, 2.87 µM.

(Values after PubChem BioAssay (NCI).)
